Reference: PubChem BioAssay (NCI)
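Exposure lasted 48 hours, with cells grown in 96-well plates and compounds tested at five concentrations. TGI marks complete inhibition of growth.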

Legend:
Experiment in all cases: DTP human tumour cell line panel, 48 h
[1] = test system: KM12 colon
[2] = test system: SF-268 CNS
[3] = test system: HOP-62 NSCLC
[4] = test system: HCT-116 colon
[5] = test system: MOLT-4 leukemia
[6] = test system: SK-MEL-2 melanoma
[7] = test system: COLO 205 colon
[8] = test system: UACC-257 melanoma
[9] = test system: SK-MEL-28 melanoma
[10] = test system: IGROV1 ovarian
[11] = test system: RXF 393 renal
[12] = test system: UACC-62 melanoma
[13] = test system: K-562 leukemia
[14] = test system: KM20L2 colon
[15] = test system: SF-539 CNS
[16] = test system: HCC-2998 colon
[17] = test system: NCI-H522 lung
[18] = test system: A549 NSCLC
[19] = test system: M14 melanoma
[20] = test system: UO-31 renal
[21] = test system: LOX IMVI melanoma
[22] = test system: HT29 colon
[23] = test system: SK-OV-3 ovarian
[24] = test system: U251 CNS
[25] = test system: 786-0 renal
[26] = test system: SN12C renal
[27] = test system: SNB-75 CNS
[28] = test system: NCI-H23 lung
[29] = test system: CCRF-CEM leukemia
[30] = test system: OVCAR-5 ovarian
[31] = test system: DLD-1 colon
[32] = test system: SW-620 colon
[33] = test system: M19-MEL melanoma
[34] = test system: OVCAR-4 ovarian
[35] = test system: DMS 273 small cell lung
[36] = test system: SNB-19 CNS
[37] = test system: HOP-92 NSCLC
[38] = test system: RPMI-8226 leukemia
[39] = test system: OVCAR-8 ovarian
[40] = test system: MALME-3M melanoma
[41] = test system: DMS 114 small cell lung
[42] = test system: A498 renal
[43] = test system: ACHN renal
[44] = test system: SF-295 CNS
[45] = test system: LXFL 529 NSCLC
[46] = test system: HOP-18 NSCLC
[47] = test system: HCT-15 colon
[48] = test system: TK-10 renal
[49] = test system: NCI-H460 lung
[50] = test system: OVCAR-3 ovarian
[51] = test system: SNB-78 CNS
[52] = test system: EKVX NSCLC
[53] = test system: HL-60(TB) leukemia
[54] = test system: NCI-H226 lung
[55] = test system: SR leukemia
[56] = test system: XF 498 CNS
[57] = test system: SK-MEL-5 melanoma

C=CCNC(=O)ON1C(=O)CCC1=O
TGI [1]: > 100 µM
TGI [2]: > 100 µM
TGI [3]: > 100 µM
TGI [4]: > 100 µM
TGI [5]: > 100 µM
TGI [6]: > 100 µM
TGI [7]: > 100 µM
TGI [8]: > 100 µM
TGI [9]: > 100 µM
TGI [10]: > 100 µM
TGI [11]: > 100 µM
TGI [12]: > 100 µM
TGI [13]: > 100 µM
TGI [14]: > 100 µM
TGI [15]: > 100 µM
TGI [16]: > 100 µM
TGI [17]: > 100 µM
TGI [18]: > 100 µM
TGI [19]: > 100 µM
TGI [20]: > 100 µM
TGI [21]: > 100 µM
TGI [22]: > 100 µM
TGI [23]: > 100 µM
TGI [24]: > 100 µM
TGI [25]: > 100 µM
TGI [26]: > 100 µM
TGI [27]: > 100 µM
TGI [28]: > 100 µM
TGI [29]: > 100 µM
TGI [30]: > 100 µM
TGI [31]: > 100 µM
TGI [32]: > 100 µM
TGI [33]: > 100 µM
TGI [34]: > 100 µM
TGI [35]: > 100 µM
TGI [36]: > 100 µM
TGI [37]: > 100 µM
TGI [38]: > 100 µM
TGI [39]: > 100 µM
TGI [40]: > 100 µM
TGI [41]: > 100 µM
TGI [42]: > 100 µM
TGI [43]: > 100 µM
TGI [44]: > 100 µM
TGI [45]: > 100 µM
TGI [46]: > 100 µM
TGI [47]: > 100 µM
TGI [48]: > 100 µM
TGI [49]: > 100 µM
TGI [50]: > 100 µM
TGI [51]: > 100 µM
TGI [52]: > 100 µM
TGI [53]: > 100 µM

CN(C)CCNC(=O)c1ccccc1Nc1c(Cl)cccc1Cl
TGI [2]: 31.5 µM
TGI [3]: 27.2 µM
TGI [4]: 20.6 µM
TGI [5]: 29.2 µM
TGI [54]: 29.4 µM
TGI [7]: 25.8 µM
TGI [8]: 18.5 µM
TGI [9]: 28.2 µM
TGI [10]: 36.3 µM
TGI [11]: 10.8 µM
TGI [12]: 31.4 µM
TGI [13]: 36.2 µM
TGI [14]: 23.4 µM
TGI [15]: 26.7 µM
TGI [16]: 23.7 µM
TGI [18]: 25.3 µM
TGI [19]: 31 µM
TGI [20]: 17.2 µM
TGI [21]: 25.8 µM
TGI [22]: 20 µM
TGI [23]: 26.8 µM
TGI [24]: 23.9 µM
TGI [25]: 18.9 µM
TGI [26]: 28.7 µM
TGI [27]: 9.52 µM
TGI [28]: 30.9 µM
TGI [29]: 30.4 µM
TGI [55]: 30.9 µM
TGI [30]: 22.2 µM
TGI [31]: 37.1 µM
TGI [32]: 30.2 µM
TGI [33]: 24.5 µM
TGI [34]: 29.7 µM
TGI [35]: 30.5 µM
TGI [36]: 29.9 µM
TGI [38]: 29.1 µM
TGI [39]: 27.8 µM
TGI [56]: 22 µM
TGI [43]: 21 µM
TGI [45]: 32.4 µM
TGI [47]: 27.9 µM
TGI [48]: 20.7 µM
TGI [51]: 33.8 µM
TGI [57]: 9.96 µM
TGI [52]: 21.6 µM
TGI [53]: 27 µM

COc1ccc(/C=C/C(=O)c2c(-c3ccccc3)nn(C)c(=O)c2N2CCCC2)cc1
TGI [2]: > 100 µM
TGI [4]: > 100 µM
TGI [5]: > 100 µM
TGI [7]: > 100 µM
TGI [9]: > 100 µM
TGI [10]: > 100 µM
TGI [12]: > 100 µM
TGI [13]: > 100 µM
TGI [14]: > 100 µM
TGI [15]: > 100 µM
TGI [18]: > 100 µM
TGI [19]: > 100 µM
TGI [20]: > 100 µM
TGI [21]: > 100 µM
TGI [22]: > 100 µM
TGI [23]: > 100 µM
TGI [24]: > 100 µM
TGI [25]: > 100 µM
TGI [26]: > 100 µM
TGI [29]: > 100 µM
TGI [31]: > 100 µM
TGI [32]: > 100 µM
TGI [33]: > 100 µM
TGI [35]: > 100 µM
TGI [37]: 37.5 µM
TGI [38]: > 100 µM
TGI [39]: > 100 µM
TGI [56]: > 100 µM
TGI [41]: > 100 µM
TGI [42]: > 100 µM
TGI [43]: > 100 µM
TGI [44]: > 100 µM
TGI [45]: > 100 µM
TGI [46]: > 100 µM
TGI [47]: > 100 µM
TGI [48]: > 100 µM
TGI [49]: > 100 µM
TGI [57]: > 100 µM
TGI [52]: > 100 µM
TGI [53]: > 100 µM
